According to patent US20250288568A1, “NEW CRYSTAL FORM OF A PDE4 INHIBITOR” (CHIESI FARMACEUTICI S.P.A., priority 2022, published 2025):
≈ marks a conversion by molar mass, not a printed value.

Columns and labels:
[1] = Lung PK after intratracheal administration to Sprague-Dawley rats (PreciseInhale system); assay type: in vivo; details: rat, inhaled or intranasal, male Sprague-Dawley rats, 10 μg/lung deposited dose
Description: Crystal Form 2 of the compound of formula (I) was intratracheally administered to Sprague-Dawley rats using the PreciseInhale system at the dose of 10 μg/lung deposited dose. Powder aerosols was generated using 40 bar generating pressure. A total number of 24 Sprague-Dawley male rats was used for PK investigation; 8 time points for each study, n=3 rats/time point. Before administration, rats were anesthetized with sevoflurane and endotracheally intubated using appropriate steel catheters. Aerosol administration was performed connecting the catheter to the PreciseInhale system, previously set to deliver 10 μg/lung deposited dose to each animal.
Lung t1/2 is the terminal half-life, calculated by the formula ln(2)/λz, where λz is the first-order rate constant associated with the terminal (log-linear) portion of the curve. Estimated by linear regression of time vs. log concentration; i.e. the time it takes for the concentration of the drug in the lung to be reduced by 50%.
Lung MRTlast is the mean residence time from the time of dosing to the time of the last measurable concentration; i.e. the average time a molecule stays in the lung.

[2] = Solubility in Simulated Lung Fluid (SLF), saturation shake-flask method; assay type: physicochemical; details: for solubility at 0.5 h / solubility at 1 h / solubility at 3 h: simulated lung fluid (SLF), aqueous with cosolvent or surfactant or cyclodextrin, thermodynamic from solid, SLF with 0.02% v/v Tween 80, pH 6.5, 37° C.
Description: A study of solubility in SLF for the characterization of the crystal Form 2 and crystal Form A of the compound of formula (I), was performed. The use of SLF, that mimics the physiologically lung fluid, can give a good understanding of the dissolution mechanism and possible in vivo behavior of a product, enhancing the predictive capability of the dissolution testing in terms of bioavailability and therapeutic effectiveness.
The experimental method used is based on saturation shake-flask method. The samples were prepared by adding, respectively, an excess of the crystal Form 2 of the compound of formula (I) and an excess of the crystal Form A of the compound of formula (I), to the solubility medium SLF. The solubility concentration value is the thermodynamic equilibrium concentration, determined by assaying the solute concentration of the filtrate from a saturated solution, using an analytical method by UPLC-MS (MRM quantification; calibration: from 0.01 to 10 μg/ml; every batch have been tested in duplicate and samples have been filtered and diluted 1/10 in duplicate).
The SLF used for the tests were prepared analogously to literature (Simulated Biological Fluids with Possible Application in Dissolution Testing, Dissolution Technologies, 2011, dx.doi.org/10.14227/DT180311P15, table 11, page 2215). To mimic better the lung fluid, a surfactant, particularly Tween 80, has been added (0.02% v/v).
The solubility profile of the crystal Form 2 and the crystal Form A of the compound of formula (I) was determined in SLF adjusted with acetic acid (1M) to pH of 6.5, in order to simulate an inflammation condition in the lung. The experiment was conducted at 37° C.
The following experimental conditions were applied for the SLF dissolution profile study respectively for the crystal Form 2 and the crystal Form A of the compound of formula (I). About 2.5 mg of the crystal Form 2 or the crystal Form A of the compound of formula (I) was dispersed in 2.5 ml of SLF with stirring system. The concentration of material in solution was determined after 0.5, 1 and 3 hours. In each time interval, the vessel stirring was stopped, and 180-250 μl of each samples have been collected and filtered by RC Membrane Syringe Filters 0.45 μm and injected in UPLC apparatus.

MRT last ([1]; mean residence time to last measurable concentration, read-out: Lung MRTlast) [h] | half-life ([1]; terminal half-life in lung, read-out: Lung t1/2 (converted)) [h] | Higher solubility in SLF with respect to the crystal Form A ([2]; crystal Form 2 vs crystal Form A, SLF, at 0.5, 1 and 3 hours) | solubility at 0.5 h [2] [µg/mL] | solubility at 1 h [2] [µg/mL] | solubility at 3 h [2] [µg/mL] | Structure (SMILES)
9.4 | 7.7 | at least 4.5 fold | 0.74 (≈ 1.08 µM) | 0.89 (≈ 1.29 µM) | 0.88 (≈ 1.28 µM) | CS(=O)(=O)Nc1ccc(C(=O)O[C@@H](Cc2c(Cl)c[n+]([O-])cc2Cl)c2ccc(OC(F)F)c(OCC3CC3)c2)cc1OCC1CC1 (single isomer, unassigned) [Crystal Form 2]
– | – | – | 0.16 (≈ 0.233 µM) | 0.18 (≈ 0.262 µM) | 0.2 (≈ 0.291 µM) | CS(=O)(=O)Nc1ccc(C(=O)O[C@@H](Cc2c(Cl)c[n+]([O-])cc2Cl)c2ccc(OC(F)F)c(OCC3CC3)c2)cc1OCC1CC1 [Crystal Form A, 3,5-dichloro-4-[(2S)-2-[3-(cyclopropylmethoxy)-4-(difluoromethoxy)phenyl]-2-{[3-(cyclopropylmethoxy)-4-(methanesulfonamido)benzoyl]oxy}ethyl]pyridine1-oxide, reference compound]
